According to the OPERA property sets (Mansouri et al. 2018):
In brackets after ≈: the same amount, converted by molar mass. Where a SMILES comes first, the peptide text is derived from it.

Oc1cnc2ccccc2c1
solubility (20 °C): 4.05 mM (≈ 588 µg/mL)

CCCCOc1cc(C(=O)NCCN(CC)CC)c2ccccc2n1
solubility (21 °C): 0.122 mM (≈ 42 µg/mL)

Cc1cc(Cl)cc(C)c1O
solubility (25 °C): 21.1 mM (≈ 3300 µg/mL)

O=c1ccc(I)c[nH]1
solubility (20 °C): 18.1 mM (≈ 4000 µg/mL)

CCOC(=O)N[C@@H](C=O)[C@@H](O)[C@H](O)[C@H](O)CO
solubility: 1300 mM (≈ 327000 µg/mL)

CCCCCOC(=O)c1cccnc1
solubility (25 °C): 4.19 mM (≈ 810 µg/mL)

CCC(CC)C(=O)N(CC)CC
solubility: 81.7 mM (≈ 14000 µg/mL)

O=C(O)c1ccccc1C1OC(=O)c2ccccc21 (stereo not drawn)
solubility (23 °C): 0.787 mM (≈ 200 µg/mL)

Nc1c(S(=O)(=O)O)cc(S(=O)(=O)O)c2ccc(S(=O)(=O)O)cc12
solubility (20 °C): 480 mM (≈ 184000 µg/mL)

Nc1ccncc1
solubility (20 °C): 885 mM (≈ 83300 µg/mL)

O=C(O)C(=O)Nc1ccc(Cl)cc1Cl
solubility (25 °C): 5.29 mM (≈ 1240 µg/mL)

CCC(=O)Oc1ccc([N+](=O)[O-])cc1
solubility (25 °C): 0.128 mM (≈ 25 µg/mL)

O=S1(=O)NCc2ccccc21
solubility (22 °C): 30.1 mM (≈ 5100 µg/mL)

CCCCCCCCCOC(=O)c1cccnc1
solubility (25 °C): 0.802 mM (≈ 200 µg/mL)

CC(=O)C(=O)c1ccccc1
solubility (20 °C): 17.5 mM (≈ 2600 µg/mL)

CN(C)C1CCC=CCCC1 (stereo not drawn)
solubility: 25.1 mM (≈ 3850 µg/mL)

CC1(C)CO1
solubility (20 °C): 804 mM (≈ 58000 µg/mL)

S=C=NCCc1ccccc1
solubility (20 °C): 0.674 mM (≈ 110 µg/mL)

CC(C)C[C@H](N)C(=O)N[C@@H](CCC(=O)O)C(=O)O (H-Leu-Glu-OH)
solubility (25 °C): 127 mM (≈ 33000 µg/mL)

CCCCOP(=O)(CCCC)OCCCC
solubility (25 °C): 2 mM (≈ 500 µg/mL)

O=C(c1ccco1)N(O)c1ccccc1
solubility: 0.64 mM (≈ 130 µg/mL)

O=[N+]([O-])c1cc([N+](=O)[O-])c(-c2ccccc2)cc1O
solubility (25 °C): 0.0346 mM (≈ 9 µg/mL)

Nc1ccc2c(c1)C(=O)OC2
solubility (25 °C): 9.09 mM (≈ 1360 µg/mL)

C1COC2(C1)CCCO2
solubility: 780 mM (≈ 100000 µg/mL)

c1ncc2n[nH]nc2n1
solubility (20 °C): 586 mM (≈ 71000 µg/mL)

O=C(O)COc1ccc([N+](=O)[O-])cc1[N+](=O)[O-]
solubility (21 °C): 11.6 mM (≈ 2800 µg/mL)

CCc1ccccc1NC(C)=O
solubility (30 °C): 25.7 mM (≈ 4190 µg/mL)

CCCCCN(N=Cc1ccc([N+](=O)[O-])o1)C(N)=O
solubility (25 °C): 1.27 mM (≈ 340 µg/mL)

O=S(=O)(O)c1cnc[nH]1
solubility: 1350 mM (≈ 200000 µg/mL)

CN1c2ccccc2Sc2ccccc21
solubility (20 °C): 0.00255 mM (≈ 0.544 µg/mL)

CC1(C)OC(=O)c2cc([N+](=O)[O-])ccc21
solubility (25 °C): 0.888 mM (≈ 184 µg/mL)

O=C(O)C(Br)=C(Br)I
solubility (20 °C): 95.6 mM (≈ 34000 µg/mL)

O=C(NC1CCCCC1)c1cccnc1
solubility (25 °C): 4.8 mM (≈ 980 µg/mL)

O=C1CNC(=S)N1c1ccccc1
solubility (25 °C): 0.572 mM (≈ 110 µg/mL)

c1ccc2c3c(ccc2c1)Nc1ccc2ccccc2c1S3
solubility (20 °C): 0.000132 mM (≈ 0.0396 µg/mL)

CC(=O)OCC(C)OC(C)=O (stereo not drawn)
solubility (25 °C): 624 mM (≈ 100000 µg/mL)

CC(C)SS(=O)C(C)C (stereo not drawn)
solubility: 150 mM (≈ 25000 µg/mL)

CCOC(=O)C(C)=CC(=O)[O-]
solubility (20 °C): 94.2 mM

O=C(O)CSCC(=O)O
solubility (25 °C): 2660 mM (≈ 400000 µg/mL)

O=C(NCCO)C(=O)NCCO
solubility (20 °C): 772 mM (≈ 136000 µg/mL)

CCCCOC(=O)NS(N)(=O)=O
solubility (25 °C): 91.7 mM (≈ 18000 µg/mL)

Nc1nc(N)nc(Cl)n1
solubility (20 °C): 4.12 mM (≈ 600 µg/mL)

CCC(C(=O)O)C(CC)C(=O)O (stereo not drawn)
solubility (23 °C): 69.5 mM (≈ 12100 µg/mL)

Cn1cc2nccnc2nc1=O
solubility (20 °C): 123 mM (≈ 20000 µg/mL)

O=C(OCCCO)c1ccccc1
solubility: 55.5 mM (≈ 10000 µg/mL)

O=C1C(=O)c2ccccc2-c2ccccc21
solubility (25 °C): 0.036 mM (≈ 7.5 µg/mL)

O=C(O)c1ccccc1C(=O)c1ccc(O)cc1
solubility (21 °C): 2.61 mM (≈ 632 µg/mL)

O=C(O)CCC(=O)OC[C@@H](NC(=O)C(Cl)Cl)[C@H](O)c1ccc([N+](=O)[O-])cc1
solubility (27 °C): 8.27 mM (≈ 3500 µg/mL)

Oc1ccccc1Oc1ccccc1
solubility: 0.591 mM (≈ 110 µg/mL)

CCC(Cl)(CC)C(N)=O
solubility: 93.6 mM (≈ 14000 µg/mL)

O=C(OCCO)c1ccccc1O
solubility (20 °C): 69.7 mM (≈ 12700 µg/mL)

CCCOC(=O)c1cccnc1
solubility (25 °C): 57.5 mM (≈ 9500 µg/mL)

NC(=O)N/N=C/[C@H](O)[C@@H](O)[C@@H](O)[C@H](O)CO
solubility (23 °C): 222 mM (≈ 52700 µg/mL)

CC(=O)Nc1ccc(S(=O)(=O)Nc2ccccn2)cc1
solubility (20 °C): 0.192 mM (≈ 56 µg/mL)

O=C(O)CC1(CC(=O)O)OCOC1=O
solubility: 245 mM (≈ 50000 µg/mL)

CN(C)C(=O)c1ccccc1C(=O)N(C)C
solubility (30 °C): 3220 mM (≈ 710000 µg/mL)

CCCCCCC(C/C=C\CCCCCCCC(=O)O)OS(=O)(=O)O (stereo not drawn)
solubility (25 °C): 264 mM (≈ 100000 µg/mL)

CCCOC(=O)c1ccc(O)c(I)c1
solubility (30 °C): 0.206 mM (≈ 63 µg/mL)

OCc1cc(Cl)c(Cl)c(Cl)c1
solubility (20 °C): 0.804 mM (≈ 170 µg/mL)

Cn1cc(I)ccc1=O
solubility: 979 mM (≈ 230000 µg/mL)

CCCCCCCOC(=O)c1cccnc1
solubility (25 °C): 1.81 mM (≈ 400 µg/mL)

CCCCCCCCOCCO
solubility (25 °C): 7.5 mM (≈ 1310 µg/mL)

O=C(O)c1ccc([N+](=O)[O-])c2cccnc12
solubility (25 °C): 0.683 mM (≈ 149 µg/mL)

O=C(O)c1ccccc1C(=O)c1ccc(Cl)cc1
solubility (20 °C): 1.92 mM (≈ 500 µg/mL)

CCOC(=S)SC(C)C(=O)O (stereo not drawn)
solubility (25 °C): 35.6 mM (≈ 6910 µg/mL)

COS(=O)(=O)c1ccccc1
solubility (25 °C): 18.1 mM (≈ 3120 µg/mL)

COC(C)C(NC=O)C(=O)O (racemic)
solubility (25 °C): 242 mM (≈ 39000 µg/mL)

O=C(O)c1cccc2cccnc12
solubility (25 °C): 18 mM (≈ 3120 µg/mL)

Brc1ccc2c(c1)Sc1ccccc1N2
solubility (20 °C): 0.000773 mM (≈ 0.215 µg/mL)

Cc1ccc(S(C)(=O)=O)cc1
solubility (25 °C): 10.3 mM (≈ 1750 µg/mL)

CC(=O)c1ccc(O)c(C(=O)O)c1
solubility: 5.88 mM (≈ 1060 µg/mL)

CC(C(=O)O)N(CCC#N)CCC#N (stereo not drawn)
solubility (25 °C): 666 mM (≈ 130000 µg/mL)

COCCOC(=O)CCCCC(=O)OCCOC
solubility: 54.1 mM (≈ 14200 µg/mL)

O=C1CC=CS1
solubility (25 °C): 599 mM (≈ 60000 µg/mL)

NC(CO)C(=O)N[C@@H](CO)C(=O)O (stereo in doubt)
solubility: 260 mM (≈ 50000 µg/mL)

C=CCc1ccc(OCC(=O)O)c(OC)c1
solubility: 5.27 mM (≈ 1170 µg/mL)

CCc1nc2c(c(=O)n(C)c(=O)n2C)n1C
solubility (25 °C): 27 mM (≈ 6000 µg/mL)

CCCCCCCCOCC(O)CO (stereo not drawn)
solubility (25 °C): 12 mM (≈ 2450 µg/mL)

Oc1ccc(Sc2ccccc2)cc1
solubility: 1.68 mM (≈ 340 µg/mL)

COc1c(O)ccc(C=O)c1C
solubility (25 °C): 42.1 mM (≈ 7000 µg/mL)

CSc1cc(O)cc(O)c1
solubility (20 °C): 16 mM (≈ 2500 µg/mL)

Nc1cc([N+](=O)[O-])ccc1I
solubility (25 °C): 0.0379 mM (≈ 10 µg/mL)

CCOP(=O)(OCC)C(Cl)(Cl)Cl
solubility (25 °C): 17.6 mM (≈ 4500 µg/mL)
